Measurements from ChEMBL document CHEMBL3885861, “Open TG-GATES”.

Species: Rattus norvegicus
Experiment: Open TG-GATES - Regimen: Daily Repeat
Format: toxicity, organism-based, Sprague-Dawley
Set-up: regimen Daily Repeat, gender Male, age 6 weeks
Details: in vivo, po, 100 mg/kg, route gavage, dose level High; for APTT / Bas / Eos / Fbg / Hb / Ht / Lym / MCHC / MCV / Mono / Neu / PT / Plat / RBC / Ret / WBC: tissue Blood; for KIDNEY_L / KIDNEY_R / KIDNEY_TOTAL: tissue Kidney; for LIVER: tissue Liver; for ALP / ALT / AST / BUN / CRE / Ca / Cl / DBIL / GLC / IP / K / LDH / Na / PL / RALB / TBIL / TC / TG / TP / gamma-GTP: tissue Plasma

## CS(=O)(=O)Nc1ccc([N+](=O)[O-])cc1Oc1ccccc1 [NIMESULIDE]
72 h, time 3 day
  TERMINAL_BW: 201.1 g
  APTT: 17.3 s
  Bas: 0%
  Eos: 1.4%
  Fbg: 222 mg/dL
  Hb: 14.1 g/dL
  Ht: 41.6%
  Lym: 66.8%
  MCHC: 34%
  MCV: 64.1 fL
  Mono: 8.6%
  Neu: 22.8%
  PT: 11.6 s
  Plat: 113.5 x10_4/uL
  RBC: 649.4 x10_4/ul
  Ret: 6.7%
  WBC: 100.9 x10_2/uL
  KIDNEY_L: 0.9 g
  KIDNEY_R: 0.9 g
  KIDNEY_TOTAL: 1.9 g
  LIVER: 10.5 g
  ALP: 841.4 IU/L
  ALT: 37.4 IU/L
  AST: 63.8 IU/L
  BUN: 21.8 mg/dL
  CRE: 0.5 mg/dL
  Ca: 10.9 mg/dL
  Cl: 105 meq/L
  DBIL: 0.06 mg/dL
  GLC: 178.2 mg/dL
  IP: 6.7 mg/dL
  K: 4.4 meq/L
  LDH: 97.2 IU/L
  Na: 141.4 meq/L
  PL: 168.2 mg/dL
  RALB: 4.1 g/dL
  TBIL: 0.3 mg/dL
  TC: 91.2 mg/dL
  TG: 60.6 mg/dL
  TP: 5.6 g/dL
  gamma-GTP: 1.8 IU/L
[…], time 7 day
  TERMINAL_BW: 235.6 g
  APTT: 19.1 s
  Bas: 0%
  Eos: 1.2%
  Fbg: 275.5 mg/dL
  Hb: 13.3 g/dL
  Ht: 39.3%
  Lym: 62.5%
  MCHC: 33.7%
  MCV: 63 fL
  Mono: 6.2%
  Neu: 30.2%
  PT: 11.2 s
  Plat: 135.9 x10_4/uL
  RBC: 624.5 x10_4/ul
  Ret: 11.2%
  WBC: 138.2 x10_2/uL
  KIDNEY_L: 1.1 g
  KIDNEY_R: 1.1 g
  KIDNEY_TOTAL: 2.2 g
  LIVER: 12.7 g
  ALP: 860.8 IU/L
  ALT: 32.2 IU/L
  AST: 63.2 IU/L
  BUN: 20 mg/dL
  CRE: 0.6 mg/dL
  Ca: 10.9 mg/dL
  Cl: 105.5 meq/L
  DBIL: 0.0275 mg/dL
  GLC: 199.5 mg/dL
  IP: 6.6 mg/dL
  K: 4.4 meq/L
  LDH: 75.8 IU/L
  Na: 141.2 meq/L
  PL: 166.8 mg/dL
  RALB: 4 g/dL
  TBIL: 0.4 mg/dL
  TC: 92 mg/dL
  TG: 68.5 mg/dL
  TP: 6 g/dL
  gamma-GTP: 1.5 IU/L
[…], time 14 day
  TERMINAL_BW: 287.5 g
  APTT: 17.7 s
  Bas: 0%
  Eos: 1.4%
  Fbg: 250.2 mg/dL
  Hb: 13.6 g/dL
  Ht: 39.4%
  Lym: 55.8%
  MCHC: 34.4%
  MCV: 65.7 fL
  Mono: 9.8%
  Neu: 32.8%
  PT: 11.6 s
  Plat: 141.2 x10_4/uL
  RBC: 605 x10_4/ul
  Ret: 14%
  WBC: 143.9 x10_2/uL
  KIDNEY_L: 1.2 g
  KIDNEY_R: 1.3 g
  KIDNEY_TOTAL: 2.5 g
  LIVER: 16.1 g
  ALP: 842 IU/L
  ALT: 31.4 IU/L
  AST: 60.8 IU/L
  BUN: 24.6 mg/dL
  CRE: 0.6 mg/dL
  Ca: 10.7 mg/dL
  Cl: 105.4 meq/L
  DBIL: 0.008 mg/dL
  GLC: 184.8 mg/dL
  IP: 7 mg/dL
  K: 4.5 meq/L
  LDH: 79.8 IU/L
  Na: 141.6 meq/L
  PL: 171 mg/dL
  RALB: 4 g/dL
  TBIL: 0.4 mg/dL
  TC: 90.4 mg/dL
  TG: 98.8 mg/dL
  TP: 5.9 g/dL
  gamma-GTP: 2.2 IU/L
[…], time 28 day
  TERMINAL_BW: 332.9 g
  APTT: 18.9 s
  Bas: 0%
  Eos: 1.4%
  Fbg: 235.2 mg/dL
  Hb: 15.4 g/dL
  Ht: 45.6%
  Lym: 71.8%
  MCHC: 33.7%
  MCV: 59.4 fL
  Mono: 8%
  Neu: 19.2%
  PT: 11.9 s
  Plat: 118.9 x10_4/uL
  RBC: 769.2 x10_4/ul
  Ret: 4%
  WBC: 126.2 x10_2/uL
  KIDNEY_L: 1.3 g
  KIDNEY_R: 1.3 g
  KIDNEY_TOTAL: 2.6 g
  LIVER: 17 g
  ALP: 656.6 IU/L
  ALT: 27.6 IU/L
  AST: 57.8 IU/L
  BUN: 24 mg/dL
  CRE: 0.6 mg/dL
  Ca: 10.9 mg/dL
  Cl: 107.4 meq/L
  DBIL: 0.018 mg/dL
  GLC: 180.6 mg/dL
  IP: 6.8 mg/dL
  K: 4.5 meq/L
  LDH: 71.2 IU/L
  Na: 144.4 meq/L
  PL: 182.2 mg/dL
  RALB: 4.2 g/dL
  TBIL: 0.4 mg/dL
  TC: 100.4 mg/dL
  TG: 102.6 mg/dL
  TP: 6.2 g/dL
  gamma-GTP: 1.6 IU/L
